In the NIST ThermoML archive (doi:10.1016/j.jct.2007.07.005):

Test: xn = mol fraction of the nth substance listed
Details: Fluid (supercritical or subcritical phases), vibrating tube

CCCCCO [pentan-1-ol] + O=C=O
Details | mass density [kg/m3]
313.17 K, 18027 kPa, x2 = 0.6054 | 856.75
313.17 K, 19070 kPa, x2 = 0.6054 | 858.44
313.17 K, 20036 kPa, x2 = 0.6054 | 859.99
313.17 K, 21030 kPa, x2 = 0.6054 | 861.55
313.17 K, 22042 kPa, x2 = 0.6054 | 863.12
313.17 K, 23036 kPa, x2 = 0.6054 | 864.64
313.17 K, 24020 kPa, x2 = 0.6054 | 866.12
313.17 K, 25040 kPa, x2 = 0.6054 | 867.64
322.89 K, 520 kPa, x2 = 0 | 792.06
322.89 K, 1010 kPa, x2 = 0 | 792.47
322.89 K, 2005 kPa, x2 = 0 | 793.27
322.89 K, 3007 kPa, x2 = 0 | 794.07
322.89 K, 4005 kPa, x2 = 0 | 794.86
322.89 K, 5018 kPa, x2 = 0 | 795.63
322.89 K, 6001 kPa, x2 = 0 | 796.42
322.89 K, 7016 kPa, x2 = 0 | 797.2
322.89 K, 8020 kPa, x2 = 0 | 797.97
322.89 K, 8997 kPa, x2 = 0 | 798.71
322.89 K, 10001 kPa, x2 = 0 | 799.47
322.89 K, 11005 kPa, x2 = 0 | 800.21
322.89 K, 11996 kPa, x2 = 0 | 800.95
322.89 K, 13002 kPa, x2 = 0 | 801.68
322.89 K, 14013 kPa, x2 = 0 | 802.4
322.89 K, 15005 kPa, x2 = 0 | 803.11
322.89 K, 16014 kPa, x2 = 0 | 803.82
322.89 K, 17001 kPa, x2 = 0 | 804.51
322.89 K, 18016 kPa, x2 = 0 | 805.21
322.89 K, 19012 kPa, x2 = 0 | 805.89
322.89 K, 19992 kPa, x2 = 0 | 806.56
322.89 K, 21036 kPa, x2 = 0 | 807.26
322.89 K, 22003 kPa, x2 = 0 | 807.92
322.89 K, 23024 kPa, x2 = 0 | 808.61
322.89 K, 23994 kPa, x2 = 0 | 809.26
322.89 K, 25023 kPa, x2 = 0 | 810
323.05 K, 3011 kPa, x2 = 0.0816 | 797.79
323.05 K, 4020 kPa, x2 = 0.0816 | 798.67
323.05 K, 5030 kPa, x2 = 0.0816 | 799.53
323.05 K, 6018 kPa, x2 = 0.0816 | 800.37
323.05 K, 7017 kPa, x2 = 0.3624 | 815.3
323.05 K, 7023 kPa, x2 = 0.0816 | 801.2
323.05 K, 8013 kPa, x2 = 0.0816 | 802.02
323.05 K, 8029 kPa, x2 = 0.4651 | 820.04
323.05 K, 8051 kPa, x2 = 0.3624 | 816.51
323.05 K, 9009 kPa, x2 = 0.4651 | 821.63
323.05 K, 9023 kPa, x2 = 0.0816 | 802.84
323.05 K, 9034 kPa, x2 = 0.3624 | 817.64
323.05 K, 9991 kPa, x2 = 0.4651 | 823.23
323.05 K, 10026 kPa, x2 = 0.0816 | 803.67
323.05 K, 10029 kPa, x2 = 0.3624 | 818.77
323.05 K, 11006 kPa, x2 = 0.0816 | 804.46
323.05 K, 11012 kPa, x2 = 0.4651 | 824.81
323.05 K, 11015 kPa, x2 = 0.8067 | 800.23
323.05 K, 11022 kPa, x2 = 0.3624 | 819.83
323.05 K, 11033 kPa, x2 = 0.9757 | 625.72
323.05 K, 11992 kPa, x2 = 0.0816 | 805.23
323.05 K, 11993 kPa, x2 = 0.4651 | 826.28
323.05 K, 11995 kPa, x2 = 0.9757 | 668.32
323.05 K, 12003 kPa, x2 = 0.3624 | 820.86
323.05 K, 12032 kPa, x2 = 0.8067 | 808.05
323.05 K, 13015 kPa, x2 = 0.3624 | 821.9
323.05 K, 13017 kPa, x2 = 0.9757 | 699.41
323.05 K, 13024 kPa, x2 = 0.4651 | 827.83
